# Results reported in ChEMBL document CHEMBL5260799, “Pterocarpan scaffold: A natural lead molecule with diverse pharmacological properties” (Eur J Med Chem, 2017).
# pIC50: −log10 of the molar value.
# Experiments:
# [1] = test system: Staphylococcus aureus; test: Antibacterial activity against methicillin-resistant Staphylococcus aureus ATCC 4330 assessed as bacterial growth inhibition; format: functional
# [2] = test system: KB; test: Cytotoxicity against human KB cells assessed as reduction in cell viability by colorimetric assay; format: functional, cell-based
# [3] = test system: Plasmodium falciparum; test: Antiplasmodial activity against Plasmodium falciparum K1 assessed as reduction in parasite growth by fluorescence based assay; format: functional, organism-based
# [4] = test system: NCI-H187; test: Cytotoxicity against human NCI-H187 cells assessed as reduction in cell viability by colorimetric assay; format: functional, cell-based
# [5] = test system: Streptococcus agalactiae; test: Antibacterial activity against Streptococcus agalactiae ATCC 12386 assessed as reduction in bacterial growth by microbroth dilution method; format: functional
# [6] = test system: Breast carcinoma cell; test: Cytotoxicity against human Breast carcinoma cell assessed as reduction in cell viability by colorimetric assay; format: functional, cell-based
# [7] = test system: Enterococcus; test: Antibacterial activity against vancomycin-resistant Enterococcus GCMT3 assessed as reduction in bacterial growth incubated for 24 hrs by microbroth dilution method; format: functional
# [8] = test system: Enterococcus; test: Antibacterial activity against vancomycin-resistant Enterococcus GCMT1 assessed as reduction in bacterial growth incubated for 24 hrs by microbroth dilution method; format: functional
# [9] = test system: Mycobacterium tuberculosis; test: Antimycobacterial activity against Mycobacterium tuberculosis H37Rv assessed as inhibition of bacterial growth by Microplate alamar blue assay; format: functional, organism-based
# [10] = test system: Plasmodium falciparum; test: Antiplasmodial activity against Plasmodium falciparum W2 assessed as reduction in plasmodial growth after 48 hrs by fluorescence based analysis; format: functional, organism-based; conditions: W2, 48 h
# [11] = test system: Plasmodium falciparum; test: Antiplasmodial activity against Plasmodium falciparum K1 assessed as reduction in parasitic growth by fluorescence based analysis; format: functional, organism-based
# [12] = biological target: Sterol O-acyltransferase 2 (Homo sapiens) (UniProt O75908); test: Inhibition of human ACAT2 at 100 uM
# [13] = biological target: Sterol O-acyltransferase 1 (Homo sapiens) (UniProt P35610); test: Inhibition of human ACAT1 at 100 uM
# [14] = biological target: Maltase-glucoamylase (Homo sapiens, UniProt O43451); test: Inhibition of human Alpha-glucosidase
# [15] = test system: Candida albicans; test: Antifungal activity against Candida albicans SC5314 assessed as reduction in fungal growth incubated for 24 hrs by serial dilution method; format: functional
# [16] = test system: Staphylococcus aureus; test: Antibacterial activity against Staphylococcus aureus ATCC 25923 assessed as bacterial growth inhibition by broth dilution method; format: functional, organism-based
# [17] = test system: Candida albicans; test: Antifungal activity against multidrug-resistant Candida albicans ATCC 10231 assessed as reduction in fungal growth by NCCLS method; format: functional
# [18] = test system: Candida albicans; test: Antifungal activity against Candida albicans ATCC 10231 assessed as reduction in fungal growth by NCCLS method; format: functional
# [19] = test system: Staphylococcus aureus; test: Antibacterial activity against methicillin-resistant Staphylococcus aureus ATCC 25923 assessed as bacterial growth inhibition by broth dilution method; format: functional, organism-based
# [20] = test system: Mycobacterium tuberculosis; test: Antimycobacterial activity against Mycobacterium tuberculosis H37Ra assessed as reduction in bacterial growth by MABA method; format: functional
# [21] = test system: KB; test: Cytotoxicity against human KB cells assessed as reduction in cell viability by resazurin microplate assay; format: functional, cell-based
# [22] = test system: NCI-H187; test: Cytotoxicity against human NCI-H187 cells assessed as reduction in cell viability by resazurin microplate assay; format: functional, cell-based
# [23] = test system: MCF7; test: Cytotoxicity against human MCF7 cells assessed as reduction in cell viability by resazurin microplate assay; format: functional, cell-based
# Sterol O-acyltransferase 2 (Homo sapiens), sequence (O75908 whole entry): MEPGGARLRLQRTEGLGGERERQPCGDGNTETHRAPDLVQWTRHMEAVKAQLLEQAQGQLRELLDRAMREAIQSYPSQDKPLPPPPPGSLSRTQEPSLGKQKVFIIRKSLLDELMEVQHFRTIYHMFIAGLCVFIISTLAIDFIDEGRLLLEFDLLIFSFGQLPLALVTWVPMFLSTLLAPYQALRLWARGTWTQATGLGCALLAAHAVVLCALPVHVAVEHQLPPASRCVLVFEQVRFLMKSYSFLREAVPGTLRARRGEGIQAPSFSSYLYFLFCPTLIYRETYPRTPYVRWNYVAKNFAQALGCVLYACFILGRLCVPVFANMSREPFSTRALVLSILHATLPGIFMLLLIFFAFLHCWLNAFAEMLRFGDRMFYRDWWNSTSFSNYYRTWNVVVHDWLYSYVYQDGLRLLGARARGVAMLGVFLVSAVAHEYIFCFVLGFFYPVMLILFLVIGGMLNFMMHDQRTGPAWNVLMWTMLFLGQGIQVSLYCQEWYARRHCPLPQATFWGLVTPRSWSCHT
# Sterol O-acyltransferase 1 (Homo sapiens), sequence (P35610 whole entry, looked up): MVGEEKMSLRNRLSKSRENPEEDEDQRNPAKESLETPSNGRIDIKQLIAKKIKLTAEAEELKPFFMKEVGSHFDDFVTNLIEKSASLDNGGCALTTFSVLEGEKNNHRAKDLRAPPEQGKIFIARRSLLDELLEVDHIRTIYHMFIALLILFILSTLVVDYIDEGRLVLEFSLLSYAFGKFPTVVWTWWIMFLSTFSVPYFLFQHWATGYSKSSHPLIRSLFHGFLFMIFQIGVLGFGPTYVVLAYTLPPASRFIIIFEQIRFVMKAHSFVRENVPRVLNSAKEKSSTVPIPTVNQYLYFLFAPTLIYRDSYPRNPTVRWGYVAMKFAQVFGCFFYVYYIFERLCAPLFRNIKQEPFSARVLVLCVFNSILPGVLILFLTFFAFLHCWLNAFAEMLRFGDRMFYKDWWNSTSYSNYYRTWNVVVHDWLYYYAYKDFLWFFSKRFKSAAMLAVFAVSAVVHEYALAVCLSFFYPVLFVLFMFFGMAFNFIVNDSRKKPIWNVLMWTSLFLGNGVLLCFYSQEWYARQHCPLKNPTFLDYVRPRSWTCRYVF
# Maltase-glucoamylase, sequence (O43451 whole entry): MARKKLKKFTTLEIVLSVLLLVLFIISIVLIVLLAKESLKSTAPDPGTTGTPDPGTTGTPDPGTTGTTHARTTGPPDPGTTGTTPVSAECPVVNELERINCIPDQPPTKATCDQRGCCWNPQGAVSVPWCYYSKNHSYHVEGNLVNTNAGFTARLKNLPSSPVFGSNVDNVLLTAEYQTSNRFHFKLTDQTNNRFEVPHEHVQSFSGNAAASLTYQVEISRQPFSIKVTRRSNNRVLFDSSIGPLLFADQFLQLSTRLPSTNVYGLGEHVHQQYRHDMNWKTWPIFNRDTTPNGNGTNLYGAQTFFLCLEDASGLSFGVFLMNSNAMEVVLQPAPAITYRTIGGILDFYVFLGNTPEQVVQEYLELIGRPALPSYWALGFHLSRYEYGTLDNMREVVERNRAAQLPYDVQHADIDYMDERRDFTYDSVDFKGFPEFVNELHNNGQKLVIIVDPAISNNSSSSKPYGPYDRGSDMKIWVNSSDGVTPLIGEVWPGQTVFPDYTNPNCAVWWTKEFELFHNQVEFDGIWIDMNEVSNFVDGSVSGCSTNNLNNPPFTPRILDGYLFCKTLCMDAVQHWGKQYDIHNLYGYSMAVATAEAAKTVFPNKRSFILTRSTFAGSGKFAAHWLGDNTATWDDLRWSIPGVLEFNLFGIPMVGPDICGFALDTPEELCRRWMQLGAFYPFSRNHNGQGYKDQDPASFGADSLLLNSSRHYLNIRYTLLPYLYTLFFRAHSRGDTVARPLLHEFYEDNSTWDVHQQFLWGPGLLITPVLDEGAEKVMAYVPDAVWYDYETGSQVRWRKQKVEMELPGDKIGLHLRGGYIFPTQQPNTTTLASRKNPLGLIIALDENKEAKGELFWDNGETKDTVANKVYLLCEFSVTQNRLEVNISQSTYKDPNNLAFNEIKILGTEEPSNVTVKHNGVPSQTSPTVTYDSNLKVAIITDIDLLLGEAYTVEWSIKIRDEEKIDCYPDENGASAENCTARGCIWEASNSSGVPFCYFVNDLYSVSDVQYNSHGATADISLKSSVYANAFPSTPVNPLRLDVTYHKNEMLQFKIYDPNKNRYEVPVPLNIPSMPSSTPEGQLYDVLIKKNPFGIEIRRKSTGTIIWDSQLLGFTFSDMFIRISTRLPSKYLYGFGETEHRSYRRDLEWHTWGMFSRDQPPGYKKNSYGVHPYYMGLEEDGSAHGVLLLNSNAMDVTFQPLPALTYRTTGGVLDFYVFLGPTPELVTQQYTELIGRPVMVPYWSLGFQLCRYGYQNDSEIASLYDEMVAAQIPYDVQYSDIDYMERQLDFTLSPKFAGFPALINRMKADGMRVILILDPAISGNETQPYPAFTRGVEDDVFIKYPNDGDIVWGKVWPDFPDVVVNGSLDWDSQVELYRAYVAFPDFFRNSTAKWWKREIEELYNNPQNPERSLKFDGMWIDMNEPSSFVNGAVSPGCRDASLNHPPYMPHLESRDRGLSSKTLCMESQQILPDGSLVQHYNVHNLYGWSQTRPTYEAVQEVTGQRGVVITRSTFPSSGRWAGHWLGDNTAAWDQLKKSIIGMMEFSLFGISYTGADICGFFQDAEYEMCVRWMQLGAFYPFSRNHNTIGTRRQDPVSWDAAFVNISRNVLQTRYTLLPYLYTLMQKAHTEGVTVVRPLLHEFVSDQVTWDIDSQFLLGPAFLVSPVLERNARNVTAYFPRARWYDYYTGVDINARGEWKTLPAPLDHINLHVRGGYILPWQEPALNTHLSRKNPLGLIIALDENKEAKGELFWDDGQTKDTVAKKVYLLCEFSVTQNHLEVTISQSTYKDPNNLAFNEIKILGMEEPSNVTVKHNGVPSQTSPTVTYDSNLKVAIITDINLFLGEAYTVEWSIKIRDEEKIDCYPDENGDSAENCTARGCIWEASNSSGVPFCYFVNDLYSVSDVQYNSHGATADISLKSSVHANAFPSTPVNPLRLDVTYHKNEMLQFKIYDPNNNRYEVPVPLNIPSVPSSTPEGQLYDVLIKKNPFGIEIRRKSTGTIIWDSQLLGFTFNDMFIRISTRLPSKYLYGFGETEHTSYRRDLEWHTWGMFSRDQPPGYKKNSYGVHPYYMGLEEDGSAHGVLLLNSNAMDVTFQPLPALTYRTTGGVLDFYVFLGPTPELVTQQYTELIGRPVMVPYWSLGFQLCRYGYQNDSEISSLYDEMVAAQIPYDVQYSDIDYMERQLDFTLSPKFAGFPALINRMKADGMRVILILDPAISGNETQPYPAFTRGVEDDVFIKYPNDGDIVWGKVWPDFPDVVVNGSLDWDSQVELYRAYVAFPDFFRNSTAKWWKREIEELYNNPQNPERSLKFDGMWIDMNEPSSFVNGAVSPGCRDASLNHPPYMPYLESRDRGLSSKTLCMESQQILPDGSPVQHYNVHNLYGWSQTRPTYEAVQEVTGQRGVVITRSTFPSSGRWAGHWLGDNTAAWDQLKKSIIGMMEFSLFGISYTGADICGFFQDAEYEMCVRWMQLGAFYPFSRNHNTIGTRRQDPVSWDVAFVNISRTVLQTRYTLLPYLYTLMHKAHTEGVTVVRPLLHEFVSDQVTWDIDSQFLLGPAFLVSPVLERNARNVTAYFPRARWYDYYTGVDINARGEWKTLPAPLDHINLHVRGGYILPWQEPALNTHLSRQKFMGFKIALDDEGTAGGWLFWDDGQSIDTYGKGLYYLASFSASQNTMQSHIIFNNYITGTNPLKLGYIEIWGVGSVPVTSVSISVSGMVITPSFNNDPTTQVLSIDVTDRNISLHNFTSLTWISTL
smiles,measurement,setting,value
COc1ccc2c(c1CC=C(C)C)O[C@H]1c3ccc(O)c(CC=C(C)C)c3OC[C@@]21O,MIC50,[1],6.25 µM
CC(C)=CCc1c(O)ccc2c1O[C@H]1c3ccc(O)c(CC=C(C)C)c3OC[C@@H]21 [ERYBRAEDIN A],IC50,[2],5.1 µg/mL
same,IC50,[3],3.4 µg/mL
same,IC50,[4],2.1 µg/mL
same,MIC,[5],0.78 µg/mL
same,IC50,[6],2.9 µg/mL
same,MIC,[7],3.13 µg/mL
same,MIC,[8],1.56 µg/mL
same,IC50,[9],25 µg/mL
CC(C)=CCc1c(O)ccc2c1O[C@H]1c3ccc(O)cc3OC[C@@H]21 [PHASEOLLIDIN],IC50,[2],7.7 µg/mL
same,IC50,[10],1.66 µg/mL
same,IC50,[4],5.05 µg/mL
same,IC50,[11],9.09 µg/mL
same,IC50,[6],14.3 µg/mL
CC1(C)C=Cc2c(ccc3c2OC2c4ccc(O)cc4OCC32)O1 (centres undefined),inhibition,[12],67.4%
same,inhibition,[13],85.9%
same,pIC50,[14],5.22
Oc1cc2c(cc1O)[C@@H]1Oc3cc4c(cc3[C@@H]1CO2)OCO4,MIC,[15],32 µg/mL
COc1ccc2c(c1CC=C(C)C)O[C@H]1c3ccc(O)cc3OCC21 (some centres undefined),IC50,[10],1.83 µg/mL
same,IC50,[16],8 µg/mL
same,MIC,[17],1.9 µg/mL
same,MIC,[18],3.8 µg/mL
same,IC50,[19],16 µg/mL
COc1c(CC=C(C)C)c(O)cc2c1[C@@H]1Oc3c(ccc(O)c3CC=C(C)C)[C@@H]1CO2,MIC,[20],50 µg/mL
COc1ccc2c(c1CC=C(C)C)OC1c3ccc(O)cc3OCC21 (centres undefined),IC50,[21],12.5 µg/mL
same,IC50,[22],5.37 µg/mL
same,IC50,[16],4 µg/mL
same,IC50,[19],4 µg/mL
same,IC50,[23],7.51 µg/mL
